Measurements reported in patent US6380229B1, “2-(N-cyanoimino)thiazolidin-4-one derivatives” (Fujimoto Co., Ltd., priority 2001, dated 2002).

What was measured:
[1] = system: high cholesterol-fed hamsters; experiment: Lipid lowering effects in high cholesterol-fed hamsters; format: in vivo, Male Syrian hamsters; details: serum
Description: Lipid Lowering Effects in High Cholesterol-fed Hamsters
The compounds were tested for lipid lowering effects in high cholesterol-fed hamsters in accordance with the method described in Jpn Pharmacol Ther, 23 (suppl 4), s1047-1053 (1995). Male Syrian hamsters were fed the high cholesterol diet supplemented with 1% cholesterol and 10% coconut oil for 3 weeks. Before drug administration, blood was collected from the orbital venous plexus under ether anesthesia, and a serum total cholesterol level was measured. […] The designated doses of the compound of Example 1 or Bezafibrate were administrated to test groups and the vehicle solution was given to the control group orally once a day for 7 days under the high cholesterol diet feeding. The intact group of animals were fed normal diet. After 4 hours of the final administration, blood was collected by cardiac puncture, and the total cholesterol and triglyceride levels in the serum were determined by the enzymatic method.
The reduction rate (%) was calculated according to the following equation: [formula]

[2] = system: fructose-induced hyperlipidemic rats; experiment: Hypotriglyceridemic activity in fructose-induced hyperlipidemic rats; format: in vivo, Sprague Dawley rats; details: serum, 30 mg/kg p.o. once a day for 7 days, blood 2 hours after final administration; for inhibition in vivo at 30 mg/kg: Rattus norvegicus, po, read-out: Triglyceride (% Reduction)
Description: Hypotriglyceridemic Activity in Fructose-induced Hyperlipidemic Rats
The compounds were tested for a hypotriglyceridemic activity in fructose-induced hyperlipidemic rats in accordance with the method described in Nippon Yakurigaku Zasshi, 92 (3), 175-180 (1988). […] 75% fructose solution as drinking water was given to the animals for 7 days, while normal water was given to the intact groups ad libitum. During the experimental period the test compounds suspended in 3% gum arabic were given to the test group orally once a day in a daily dose of 30 mg/kg. The vehicle solution was given to the control group and the intact group. After 2 hours from the final administration, blood was collected from the abdominal aorta under ether anesthesia, and levels of total cholesterol and triglyceride in the serum were measured. The reduction rate (%) was calculated according to the following equation: [formula]
Above experimental model is well known as a model of hypertriglicemia.

[3] = system: Salmonella typhimurium TA100 and TA98; experiment: Mutagenicity test (reverse mutation test); format: cell-based; details: absence or presence of S9 mix
Description: The mutagenicity of the compound of Example 1 was examined by a reverse mutation test using Salmonella typhimurium TA100 and TA98 in the absence or presence of S9 mix.

mice = experiment: Acute toxicity, single oral dose; format: in vivo; details: oral 2000 mg/kg, observed daily for 2 weeks
Description: The animals were observed daily for 2 weeks after the administration.

[4] = 30 mg/kg orally once a day for 7 days, minus = increase
[5] = 60 mg/kg orally once a day for 7 days, minus = increase
[6] = 120 mg/kg orally once a day for 7 days, minus = increase
[7] = 15 mg/kg orally once a day for 7 days, minus = increase
[8] = Table 4 (Example 65), 15 mg/kg p.o.

CC(C)(Oc1ccc(CCNC(=O)c2ccc(Cl)cc2)cc1)C(=O)O [Bezafibrate, reference compound]
Total cholesterol (% Reduction) [1, 4]: −5% | Triglyceride (% Reduction) [1, 4]: −21% | Total cholesterol (% Reduction) [1, 5]: −0% | Triglyceride (% Reduction) [1, 5]: −18% | Total cholesterol (% Reduction) [1, 6]: 20% | Triglyceride (% Reduction) [1, 6]: 16%

N#CN=C1NC(=O)/C(=C\c2ccc(C=Cc3ccccc3)cc2)S1 [Example 1, 2-(N-Cyanoimino)-5-[(E)-4-stylylbenzylidene]thiazolidin-4-one]
Total cholesterol (% Reduction) [1, 7]: 26% | Triglyceride (% Reduction) [1, 7]: 60% | Total cholesterol (% Reduction) [1, 4]: 25% | Triglyceride (% Reduction) [1, 4]: 62% | Total cholesterol (% Reduction) [1, 5]: 29% | Triglyceride (% Reduction) [1, 5]: 69% | Total cholesterol (% Reduction) [1, 6]: 41% | Triglyceride (% Reduction) [1, 6]: 80% | Triglyceride (% Reduction) [2]: 47% | mutagenicity (number of revertant colonies) [3]: not mutagenic | single dose toxicity: deaths (mice): no deaths were observed

CC(=Cc1ccccc1)c1ccc(/C=C2/SC(=NC#N)NC2=O)cc1 [Example 2, 2-(N-Cyanoimino)-5-[(E)-4-(a-methylstylyl)benzylidene]thiazolidin-4-one]
Total cholesterol (% Reduction) [1, 8]: 27% | Triglyceride (% Reduction) [1, 8]: 57% | Triglyceride (% Reduction) [2]: 67%

N#CN=C1NC(=O)C(=Cc2ccc(COCc3ccccc3)cc2)S1 [Example 3, 2-(N-Cyanoimino)-5-[4-(benzyloxymethyl)benzylidene]thiazolidin-4-one]
Total cholesterol (% Reduction) [1, 8]: 16% | Triglyceride (% Reduction) [1, 8]: 17% | inhibition in vivo at 30 mg/kg [2]: 64%

CC(=Cc1ccc(/C=C2/SC(=NC#N)NC2=O)cc1)c1ccccc1 [Example 4, 2-(N-Cyanoimino)-5-[(E)-4-(b-methylstylyl)benzylidene]thiazolidin-4-one]
Triglyceride (% Reduction) [2]: 42%

N#CN=C1NC(=O)C(=Cc2ccc(Oc3ccc(Cl)cc3)cc2)S1 [Example 6, 2-(N-Cyanoimino)-5-[4-(4-chlorophenoxy)benzylidene]thiazolidin-4-one]
inhibition in vivo at 30 mg/kg [2]: 84%

N#CN=C1NC(=O)C(=Cc2ccc(Sc3ccccc3)cc2)S1 [Example 7, 2-(N-Cyanoimino)-5-(4-phenylthiobenzylidene)thiazolidin-4-one]
Total cholesterol (% Reduction) [1, 8]: 18% | Triglyceride (% Reduction) [1, 8]: 12% | inhibition in vivo at 30 mg/kg [2]: 60%

N#CN=C1NC(=O)/C(=C\c2ccc(C=Cc3ccccc3F)cc2)S1 [Example 8, 2-(N-Cyanoimino)-5-[(E)-4-(2-fluorostylyl)benzylidene]thiazolidin-4-one]
Triglyceride (% Reduction) [2]: 47%

Cc1ccc(C)c(Oc2ccc(C=C3SC(=NC#N)NC3=O)cc2)c1 [Example 9, 2-(N-Cyanoimino)-5-[4-(2,5-dimethylphenoxy)benzylidene]thiazolidin-4-one]
Total cholesterol (% Reduction) [1, 8]: 15% | Triglyceride (% Reduction) [1, 8]: 15% | inhibition in vivo at 30 mg/kg [2]: 49%

N#CN=C1NC(=O)C(=Cc2ccc(OCCc3ccccc3)cc2)S1 [Example 10, 2-(N-Cyanoimino)-5-(4-phenethyloxybenzylidene)thiazolidin-4-one]
inhibition in vivo at 30 mg/kg [2]: 39% | single dose toxicity: deaths (mice): no deaths were observed

CC(COc1ccc(C=C2SC(=NC#N)NC2=O)cc1)c1ccccc1 (stereo not shown) [Example 11, 2-(N-Cyanoimino)-5-[4-(2-phenylpropoxy)benzylidene]thiazolidin-4-one]
inhibition in vivo at 30 mg/kg [2]: 62%

N#CN=C1NC(=O)C(=Cc2cccc(OCCc3ccccc3)c2)S1 [Example 12, 2-(N-Cyanoimino)-5-(3-phenethyloxybenzylidene)thiazolidin-4-one]
inhibition in vivo at 30 mg/kg [2]: 59%

N#CN=C1NC(=O)C(=Cc2ccc(OCc3ccccc3)cc2)S1 [Example 13, 2-(N-Cyanoimino)-5-(4-benzyloxybenzylidene)thiazolidin-4-one]
inhibition in vivo at 30 mg/kg [2]: 55%

N#CN=C1NC(=O)C(=Cc2ccc(-c3cc4cc(Cl)ccc4o3)cc2)S1 [Example 14, 2-(N-Cyanoimino)-5-[4-(5-chlorobenzofuran-2-yl)benzylidene]thiazolidin-4-one]
Total cholesterol (% Reduction) [1, 8]: 11% | Triglyceride (% Reduction) [1, 8]: 24% | inhibition in vivo at 30 mg/kg [2]: 36%

COc1ccc(C=Cc2ccc(/C=C3/SC(=NC#N)NC3=O)cc2)cc1 [Example 15, 2-(N-Cyanoimino)-5-[(E)-4-(4-methoxystylyl)benzylidene]thiazolidin-4-one]
Total cholesterol (% Reduction) [1, 8]: 32% | Triglyceride (% Reduction) [1, 8]: 61% | Triglyceride (% Reduction) [2]: 47%

N#CN=C1NC(=O)C(=Cc2cccc(Oc3ccccc3)c2)S1 [Example 16, 2-(N-Cyanoimino)-5-(3-phenoxybenzylidene)thiazolidin-4-one]
inhibition in vivo at 30 mg/kg [2]: 54%

N#CN=C1NC(=O)C(=Cc2ccc(OCc3ccc4c(c3)OCO4)cc2)S1 [Example 17, 2-(N-Cyanoimino)-5-[4-(1,3-benzodioxol-5-ylmethoxy)benzylidene]thiazolidin-4-one]
inhibition in vivo at 30 mg/kg [2]: 37%

N#CN=C1NC(=O)C(=Cc2ccc(OCc3ccc(Cl)cc3)cc2)S1 [Example 19, 2-(N-Cyanoimino)-5-[4-(4-chlorobenzyloxy)benzylidene]thiazolidin-4-one]
inhibition in vivo at 30 mg/kg [2]: 38%

N#CN=C1NC(=O)C(=Cc2ccccc2OCCc2ccccc2)S1 [Example 21, 2-(N-Cyanoimino)-5-(2-phenethyloxybenzylidene)thiazolidin-4-one]
inhibition in vivo at 30 mg/kg [2]: 48%

N#CN=C1NC(=O)C(=Cc2ccc(Oc3ccccc3)cc2)S1 [Example 22, 2-(N-Cyanoimino)-5-(4-phenoxybenzylidene)thiazolidin-4-one]
inhibition in vivo at 30 mg/kg [2]: 65%

CCC(Oc1ccc(C)cc1)c1ccccc1 (stereo not shown) [Example 32]
inhibition in vivo at 30 mg/kg [2]: 47%
